From patent US20230218572A1, “COMPOSITIONS AND METHODS FOR IMPROVED MESENCHYMAL STEM CELL THERAPY” (Versitech Limited, priority 2021, published 2023)
“Also recorded” adds a separate entry of the source.

Tests used:
[1] = tested on: CD55 mRNA; assay: CD55 mRNA expression of hMSCs by RT-qPCR; assay type: cell-based, human; settings: for CD55 mRNA expression of hMSCs compared to untreated control: AT-, BM-, UC-hMSC, Erlotinib 2, 5, 10 μM or atorvastatin 2, 5, 25, 50 μM, within 24 hours, normalized to GADPH; for Dose dependence of CD55 upregulation in hMSCs: Erlotinib 2-10 μM, atorvastatin 2-50 μM; for Expression of CD55 on hMSC vs untreated control (mRNA or protein level not specified): drug treatment of hMSC
Procedure: (§1) FIG. 9 is a bar graph of CD55 mRNA expression of hMSCs in presence of atorvastatin, showing % Normalized to GADPH (0-25) for each MSC group Adipose Tissue (AT; red), Bone Marrow (BM; blue), and Umbilical Cord (UC; green), respectively, in the presence of 0 μM (untreated control) 2 μM, 5 μM, 25 μM, and 50 μM atorvastatin.
as §1, with “10” for “9”, “Erlotinib,” for “atorvastatin,”, “μM,” for “μM, 25 μM,”, “10” for “50”, “Erlotinib.” for “atorvastatin.”
(§2) The expression of CD55 in hMSC was then validated by RT-qPCR and flow cytometry.
hMSC were treated with Erlotinib, which is an EGFR inhibitor, on different dosages within 24 hours, […]

[2] = tested on: CD55 surface protein; assay: CD55 surface protein expression on hMSCs by flow cytometry; assay type: cell-based, human; settings: AT-, BM-, UC-hMSC, 5 μM Atr or 5 μM Erl, 24 hr
Procedure: FIG. 11 is a bar graph of CD55 surface expression on hMSCs following 24 hr in presence of Atorvastatin (Atr) or Erlotinib (Erl), showing % of CD55+ cells (0-100) for each MSC group Adipose Tissue (AT; red), Bone Marrow (BM; blue), and Umbilical Cord (UC; green), respectively, in the presence of nothing (untreated control) 5 μM Atr, or 5 μM Erl.
as §2

SMILES | CD55 mRNA expression of hMSCs compared to untreated control [1] | Dose dependence of CD55 upregulation in hMSCs [1] | Expression of CD55 on hMSC vs untreated control (mRNA or protein level not specified) [1] | CD55 surface protein level on hMSCs compared with untreated control [2]
CC(C)c1c(C(=O)Nc2ccccc2)c(-c2ccccc2)c(-c2ccc(F)cc2)n1CC[C@@H](O)C[C@@H](O)CC(=O)O [atorvastatin, Atorvastatin] | increase the expression of CD55 of hMSCs in both mRNA and protein level | there was not a similar dose dependent relationship | significantly increased of CD55 expression; also recorded: significantly higher expression of CD55 than untreated control | increase the expression of CD55 of hMSCs in both mRNA and protein level
C#Cc1cccc(Nc2ncnc3cc(OCCOC)c(OCCOC)cc23)c1 [erlotinib, Erlotinib] | increased CD55 expression with significance difference in mRNA level compared to untreated control | dose dependent manner | significantly increased of CD55 expression; also recorded: significantly higher expression of CD55 than untreated control | significantly upregulated compared with untreated control
